Laboratory results published in the supplement of paper PMC9663587.

Legend:
R0-3306 = compound: C1=CC2=C(C=CC(=C2)C=C3C(=O)NC(=NCC4=CC=CS4)S3)N=C1 [R0-3306]
Paclitaxel = compound: CC(=O)O[C@H]1C(=O)[C@@]2(C)[C@H]([C@H](OC(=O)c3ccccc3)[C@]3(O)C[C@H](OC(=O)[C@H](O)[C@@H](NC(=O)c4ccccc4)c4ccccc4)C(C)=C1C3(C)C)[C@]1(OC(C)=O)CO[C@@H]1C[C@@H]2O [Paclitaxel]
BSJ-03-123 [1] = compound: T1, CC(=O)c1c(C)c2cnc(Nc3ccc(N4CCN(CCOCCOCCOCCNC(=O)COc5cccc6c5C(=O)N(C5CCC(=O)NC5=O)C6=O)CC4)cn3)nc2n(C2CCCC2)c1=O [BSJ-03-123]
BVD523 = compound: CC(C)Nc1cc(-c2c[nH]c(C(=O)N[C@H](CO)c3cccc(Cl)c3)c2)c(Cl)cn1 [BVD523]
[2] = compound: CCC1=CN=CN=C1N2CCN(CC2)CC3=NC4=C(N3)C=C(C=C4)C(F)(F)F
Neratinib/HKI272 = compound: CCOc1cc2ncc(C#N)c(Nc3ccc(OCc4ccccn4)c(Cl)c3)c2cc1NC(=O)/C=C/CN(C)C [Neratinib/HKI272]
Flavopiridol [3] = compound: T2, CN1CC[C@H](c2c(O)cc(O)c3c(=O)cc(-c4ccccc4Cl)oc23)[C@H](O)C1 [Flavopiridol]
[4] = compound: CO[C@@H](C)Cn1c(=O)n(C)c2cnc3ccc(-c4cncc(C(C)(C)O)c4)cc3c21
AZD5363 = compound: NC1(C(=O)N[C@@H](CCO)c2ccc(Cl)cc2)CCN(c2nc[nH]c3nccc2-3)CC1 [AZD5363]
YKL-5-124 = compound: C=CC(=O)Nc1ccc(C(=O)Nc2[nH]nc3c2CN(C(=O)N[C@H](CN(C)C)c2ccccc2)C3(C)C)cc1 [YKL-5-124]; experiment: GR value, 72 h; higher = faster growth (1 = untreated, <0 = killing);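 further: breast cancer and non-malignant breast epithelial lines, nine half-log doses, viable cells counted by Hoechst and LIVE/DEAD dye imaging versus time-zero plates and DMSO controls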
BSJ-03-123 [5] = compound: T1, BSJ-03-123; experiment: as above
[6] = compound: CCN1CCN(Cc2ccc(Nc3ncc(F)c(-c4cc(F)c5nc(C)n(C(C)C)c5c4)n3)nc2)CC1; experiment: as above
[7] = compound: CCc1cnn2c(NCc3ccc[n+]([O-])c3)cc(N3CCCC[C@H]3CCO)nc12; experiment: as above
LEE011/Ribociclib = compound: CN(C)C(=O)c1cc2cnc(Nc3ccc(N4CCNCC4)cn3)nc2n1C1CCCC1 [LEE011/Ribociclib]; experiment: as above
THZ531 = compound: CN(C)C/C=C/C(=O)Nc1ccc(C(=O)N2CCC[C@@H](Nc3ncc(Cl)c(-c4c[nH]c5ccccc45)n3)C2)cc1 [THZ531]; experiment: as above
THZ1 = compound: CN(C)C/C=C/C(=O)Nc1ccc(C(=O)Nc2cccc(Nc3ncc(Cl)c(-c4c[nH]c5ccccc45)n3)c2)cc1 [THZ1]; experiment: as above
Flavopiridol [8] = compound: T2, Flavopiridol; experiment: as above
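Wherever GR50, 72 h is given: breast cancer and non-malignant breast epithelial cell lines, Deep Dye Drop or Dye Drop imaging, nine half-log doses, GR normalized to time-zero plates and DMSO-only controls.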

In the case of HCC70, the “GR50, 72 h” value (R0-3306) is reported as 4.53 µM, the “GR50, 72 h” value (Paclitaxel) is reported as 0.00134 µM and the “GR50, 72 h” value (BSJ-03-123 [1]) is reported as 4.15 µM. The “GR50, 72 h” value (BVD523) was 1.11 µM, the “GR50, 72 h” value [2] was > 10 µM and the “GR50, 72 h” value (Neratinib/HKI272) was 0.16 µM. The “GR50, 72 h” value (Flavopiridol [3]) was 0.0784 µM, the “GR50, 72 h” value [4] was 0.00263 µM and the “GR50, 72 h” value (AZD5363) was 0.0256 µM. It also gave a GR value (YKL-5-124; 0.001 µM) of -0.0339 GR, a GR value (YKL-5-124; 0.003162 µM) of -0.217 GR and a GR value (YKL-5-124; 0.01 µM) of -0.27 GR. It also gave a GR value (YKL-5-124; 0.03162 µM) of -0.419 GR, a GR value (YKL-5-124; 0.1 µM) of -0.484 GR and a GR value (YKL-5-124; 0.3162 µM) of -0.506 GR. The GR value (YKL-5-124; 1 µM) was -0.608 GR, the GR value (YKL-5-124; 3.162 µM) was -0.727 GR and the GR value (YKL-5-124; 10 µM) was -0.871 GR. It also gave a GR value (BSJ-03-123 [5]; 0.001 µM) of 1.1 GR, a GR value (BSJ-03-123 [5]; 0.003162 µM) of 0.898 GR and a GR value (BSJ-03-123 [5]; 0.01 µM) of 1 GR. The GR value (BSJ-03-123 [5]; 0.03162 µM) was 0.996 GR, the GR value (BSJ-03-123 [5]; 0.1 µM) was 0.911 GR and the GR value (BSJ-03-123 [5]; 0.3162 µM) was 0.848 GR. It also gave a GR value (BSJ-03-123 [5]; 1 µM) of 0.865 GR, a GR value (BSJ-03-123 [5]; 3.162 µM) of 0.754 GR and a GR value (BSJ-03-123 [5]; 10 µM) of -0.525 GR. The GR value ([6]; 0.001 µM) was 1.06 GR, the GR value ([6]; 0.003162 µM) was 1.38 GR and the GR value ([6]; 0.01 µM) was 1.24 GR. The GR value ([6]; 0.03162 µM) was 1.18 GR, the GR value ([6]; 0.1 µM) was 1.2 GR and the GR value ([6]; 0.3162 µM) was 1.06 GR. It also gave a GR value ([6]; 1 µM) of 0.852 GR, a GR value ([6]; 3.162 µM) of -0.0922 GR and a GR value ([6]; 10 µM) of -0.82 GR. The GR value ([7]; 0.0001 µM) was 1.05 GR, the GR value ([7]; 0.0003162 µM) was 0.913 GR and the GR value ([7]; 0.001 µM) was 1.13 GR. For the same cell line, the GR value ([7]; 0.003162 µM) was 1.26 GR, the GR value ([7]; 0.01 µM) was 0.835 GR and the GR value ([7]; 0.03162 µM) was -0.865 GR. The GR value ([7]; 0.1 µM) was -0.892 GR, the GR value ([7]; 0.3162 µM) was -0.885 GR and the GR value ([7]; 1 µM) was -0.901 GR. The GR value (LEE011/Ribociclib; 0.001 µM) was 1.03 GR, the GR value (LEE011/Ribociclib; 0.003162 µM) was 1.17 GR and the GR value (LEE011/Ribociclib; 0.01 µM) was 1.01 GR. It also gave a GR value (LEE011/Ribociclib; 0.03162 µM) of 1.04 GR, a GR value (LEE011/Ribociclib; 0.1 µM) of 1.09 GR and a GR value (LEE011/Ribociclib; 0.3162 µM) of 1.03 GR. It also gave a GR value (LEE011/Ribociclib; 1 µM) of 1.06 GR, a GR value (LEE011/Ribociclib; 3.162 µM) of 1.03 GR and a GR value (LEE011/Ribociclib; 10 µM) of 1.05 GR. It also gave a GR value (THZ531; 0.0001 µM) of 1.09 GR, a GR value (THZ531; 0.0003162 µM) of 0.962 GR and a GR value (THZ531; 0.001 µM) of 1.15 GR. It also gave a GR value (THZ531; 0.003162 µM) of 1.02 GR, a GR value (THZ531; 0.01 µM) of 1.16 GR and a GR value (THZ531; 0.03162 µM) of 0.962 GR. The GR value (THZ531; 0.1 µM) was -0.197 GR, the GR value (THZ531; 0.3162 µM) was -0.793 GR and the GR value (THZ531; 1 µM) was -0.941 GR. The GR value (THZ1; 0.0001 µM) was 0.985 GR, the GR value (THZ1; 0.0003162 µM) was 1.01 GR and the GR value (THZ1; 0.001 µM) was 1.04 GR. For the same cell line, the GR value (THZ1; 0.003162 µM) was 1.02 GR, the GR value (THZ1; 0.01 µM) was 0.707 GR and the GR value (THZ1; 0.03162 µM) was -0.291 GR. The GR value (THZ1; 0.1 µM) was -0.838 GR, the GR value (THZ1; 0.3162 µM) was -0.936 GR and the GR value (THZ1; 1 µM) was -0.944 GR. It also gave a GR value (Flavopiridol [8]; 0.0001 µM) of 1.05 GR, a GR value (Flavopiridol [8]; 0.0003162 µM) of 1.01 GR and a GR value (Flavopiridol [8]; 0.001 µM) of 1.1 GR. The GR value (Flavopiridol [8]; 0.003162 µM) was 1.16 GR, the GR value (Flavopiridol [8]; 0.01 µM) was 0.998 GR and the GR value (Flavopiridol [8]; 0.03162 µM) was 0.791 GR. It also gave a GR value (Flavopiridol [8]; 0.1 µM) of 0.371 GR, a GR value (Flavopiridol [8]; 0.3162 µM) of -0.694 GR and a GR value (Flavopiridol [8]; 1 µM) of -0.815 GR.
